System: not listed separately
Assay: Growth inhibition of human PC3 cells after 72 hrs by MTT assay
Format: functional, cell-based
Conditions: PC-3, 72 h

Structure (SMILES) | IC50 [µM]
O=C(/C=C/c1ccc(Oc2ncnc3ccc(Cl)cc23)cc1)/C=C/c1ccc(Cl)c([N+](=O)[O-])c1 | 11.8
O=C(/C=C/c1ccc(Cl)c(Cl)c1)/C=C/c1ccccc1Oc1ncnc2ccc(Cl)cc12 | 18.3
O=C(/C=C/c1ccc(Oc2ncnc3ccc(Cl)cc23)cc1)/C=C/c1cccc(Cl)c1Cl | 10.2

System: Bcap37
Assay: Growth inhibition of human Bcap37 cells after 72 hrs by MTT assay
Format: functional, cell-based
Conditions: Bcap37, 72 h

Structure (SMILES) | IC50 [µM]
O=C(/C=C/c1ccc(Oc2ncnc3ccc(Cl)cc23)cc1)/C=C/c1ccc(Cl)c([N+](=O)[O-])c1 | 16.2
O=C(/C=C/c1ccc(Cl)c(Cl)c1)/C=C/c1ccccc1Oc1ncnc2ccc(Cl)cc12 | 21.2
O=C(/C=C/c1ccc(Oc2ncnc3ccc(Cl)cc23)cc1)/C=C/c1cccc(Cl)c1Cl | 14.3

System: MGC-803
Assay: Growth inhibition of human MGC803 cells at 10 uM after 72 hrs by MTT assay
Format: functional
Conditions: MGC-803, 72 h, read-out: GI

Structure (SMILES) | inhibition of growth at 10 µM [%]
O=C(/C=C/c1ccc(Oc2ncnc3ccc(Cl)cc23)cc1)/C=C/c1ccc(Cl)c([N+](=O)[O-])c1 | 66.2
O=C(/C=C/c1ccc(Cl)c(Cl)c1)/C=C/c1ccccc1Oc1ncnc2ccc(Cl)cc12 | 56.7
O=C(/C=C/c1ccc(Oc2ncnc3ccc(Cl)cc23)cc1)/C=C/c1cccc(Cl)c1Cl | 68.5

System: Bcap37
Assay: Growth inhibition of human Bcap37 cells at 10 uM after 72 hrs by MTT assay
Format: functional
Conditions: Bcap37, 72 h, read-out: GI

Structure (SMILES) | inhibition of growth at 10 µM [%]
O=C(/C=C/c1ccc(Oc2ncnc3ccc(Cl)cc23)cc1)/C=C/c1ccc(Cl)c([N+](=O)[O-])c1 | 56.3
O=C(/C=C/c1ccc(Cl)c(Cl)c1)/C=C/c1ccccc1Oc1ncnc2ccc(Cl)cc12 | 38.2
O=C(/C=C/c1ccc(Oc2ncnc3ccc(Cl)cc23)cc1)/C=C/c1cccc(Cl)c1Cl | 61.7

System: not listed separately
Assay: Growth inhibition of human PC3 cells at 10 uM after 72 hrs by MTT assay
Format: functional
Conditions: PC-3, 72 h, read-out: GI

Structure (SMILES) | inhibition of growth at 10 µM [%]
O=C(/C=C/c1ccc(Oc2ncnc3ccc(Cl)cc23)cc1)/C=C/c1ccc(Cl)c([N+](=O)[O-])c1 | 56.3
O=C(/C=C/c1ccc(Cl)c(Cl)c1)/C=C/c1ccccc1Oc1ncnc2ccc(Cl)cc12 | 42.2
O=C(/C=C/c1ccc(Oc2ncnc3ccc(Cl)cc23)cc1)/C=C/c1cccc(Cl)c1Cl | 67.4

System: MGC-803
Assay: Growth inhibition of human MGC803 cells after 72 hrs by MTT assay
Format: functional, cell-based
Conditions: MGC-803, 72 h

IC50 [µM] | Structure (SMILES)
7.19 | O=C(/C=C/c1ccc(Oc2ncnc3ccc(Cl)cc23)cc1)/C=C/c1ccc(Cl)c([N+](=O)[O-])c1
16.1 | O=C(/C=C/c1ccc(Cl)c(Cl)c1)/C=C/c1ccccc1Oc1ncnc2ccc(Cl)cc12
7.3 | O=C(/C=C/c1ccc(Oc2ncnc3ccc(Cl)cc23)cc1)/C=C/c1cccc(Cl)c1Cl
